Holding throughout (format): binding
One experiment deals with T1, BRD9 (Homo sapiens, UniProt Q9H8M2).
T1 construct: made in house
T1 sequence (Q9H8M2 136-240 limits assumed): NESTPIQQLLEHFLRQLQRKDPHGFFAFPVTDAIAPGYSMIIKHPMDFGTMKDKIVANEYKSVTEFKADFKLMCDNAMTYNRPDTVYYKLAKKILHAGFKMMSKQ
Briefly: Protein stability (thermal) shift assay, BRD9. The following applies: compound 10 μM, protein 2 μM; average of triplicate; read-out: ΔTm Shift, BRD9.

In the next experiment the target is T2, BRD4(1) (Homo sapiens, UniProt O60885).
T2 construct: made in house
Briefly: Protein stability (thermal) shift assay, BRD4(1). As to conditions: compound 10 μM, protein 2 μM; average of triplicate; read-out: ΔTm Shift, BRD4(1).

Another experiment concerns the target T3, BRD2(1) (Homo sapiens, UniProt P25440).
T3 construct: Fragments were tested in a thermal shift assay against bromodomains of the BET subfamily; made in house
Briefly: Protein stability (thermal) shift assay, BRD2(1). As to conditions: compound 10 μM, protein 2 μM; average of triplicate.

For a further experiment, the target named is T4, PCAF (Homo sapiens, UniProt Q92831).
T4 construct: representative BRDs from other structural subfamilies (family I, PCAF); made in house
T4 sequence (Q92831 723-827 limits assumed): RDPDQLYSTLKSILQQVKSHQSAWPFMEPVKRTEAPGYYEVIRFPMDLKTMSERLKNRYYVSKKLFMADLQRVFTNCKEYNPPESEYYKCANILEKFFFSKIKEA
Briefly: Protein stability (thermal) shift assay, PCAF. As to conditions: compound 10 μM, protein 2 μM; average of triplicate.

The next experiment concerns the target T5, CREBBP (Homo sapiens, UniProt Q92793).
T5 construct: small thermal shits (1.0–1.3 °C) for the bromodomain of CREBBP; made in house
Briefly: Protein stability (thermal) shift assay, CREBBP. The following applies: compound 10 μM, protein 2 μM; average of triplicate; read-out: ΔTm Shift, CREBBP.

The target of the next experiment is T6, BRDT(2) (Homo sapiens, UniProt Q58F21).
T6 construct: made in house
Briefly: Protein stability (thermal) shift assay, BRDT(2).

A further experiment has as its target T7, PB1(5) (Homo sapiens, UniProt Q86U86).
T7 construct: made in house
Briefly: Protein stability (thermal) shift assay, PB1(5). As to conditions: compound 10 μM, protein 2 μM; average of triplicate.

The target in another experiment is T8, BRD2(2) (Homo sapiens, UniProt P25440).
T8 construct: made in house
Briefly: Protein stability (thermal) shift assay, BRD2(2). As to conditions: compound 10 μM, protein 2 μM; average of triplicate.

The target of another experiment is T9, BRD3(1) (Homo sapiens, UniProt Q15059).
T9 construct: Fragments were tested in a thermal shift assay against bromodomains of the BET subfamily; made in house
Briefly: Protein stability (thermal) shift assay, BRD3(1). The following applies: compound 10 μM, protein 2 μM; average of triplicate.

The target in a further experiment is T10, BRD3(2) (Homo sapiens, UniProt Q15059).
T10 construct: made in house
Briefly: Protein stability (thermal) shift assay, BRD3(2). The following applies: compound 10 μM, protein 2 μM; average of triplicate.

The target in a further experiment is T11, BRD4(2) (Homo sapiens, UniProt O60885).
T11 construct: made in house
Briefly: Protein stability (thermal) shift assay, BRD4(2). As to conditions: compound 10 μM, protein 2 μM; average of triplicate.

The target in another experiment is T12, BRDT(1) (Homo sapiens, UniProt Q58F21).
T12 construct: made in house
Briefly: Protein stability (thermal) shift assay, BRDT(1). As to conditions: compound 10 μM, protein 2 μM; average of triplicate.

The next experiment addresses T13, BAZ2B (Homo sapiens, UniProt Q9UIF8).
T13 construct: representative BRDs from other structural subfamilies (family I, PCAF); family III, CREBBP; family IV, BRD9; family V, BAZ2B; made in house
T13 sequence (Q9UIF8 2060-2164 limits assumed): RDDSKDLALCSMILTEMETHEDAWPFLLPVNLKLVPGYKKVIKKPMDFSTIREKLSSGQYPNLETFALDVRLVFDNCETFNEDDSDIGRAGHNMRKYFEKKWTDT
Briefly: Protein stability (thermal) shift assay, BAZ2B. As to conditions: compound 10 μM, protein 2 μM; average of triplicate; read-out: ΔTm Shift, BAZ2BA.

The subject of experiment [1] is human bromodomains (panel). Briefly: Protein stability (thermal) shift assay, whole panel of human bromodomains. As to conditions: 10 μM compound. The protocol:
Thermal melting experiments were carried out using an Mx3005p real time PCR machine (Stratagene). Proteins were buffered in 10 mM HEPES, pH 7.5, 500 mM NaCl and assayed in a 96-well plate at a final concentration of 2 μM in 20 μL volume. Compounds were added at a final concentration of 10 or 100 μM. SYPRO Orange (Molecular Probes) was added as a fluorescence probe at a dilution of 1 in 1000. Excitation and emission filters for the SYPRO-Orange dye were set to 465 and 590 nm, respectively. The temperature was raised with a step of 3 °C per minute from 25 to 96 °C, and fluorescence readings were taken at each interval. The temperature dependence of the fluorescence during the protein denaturation process was approximated by the equation [drawing 1] where ΔuG is the difference in unfolding free energy between the folded and unfolded state, R is the gas constant, and yF and yU are the fluorescence intensity of the probe in the presence of completely folded and unfolded protein, respectively.[65] The baselines of the denatured and native states were approximated by a linear fit. The observed temperature shifts, ΔTm^obs, were recorded as the difference between the transition midpoints of sample and reference wells containing protein without ligand in the same plate and determined by nonlinear least-squares fit. Temperature shifts (ΔTm^obs) for three independent measurements per proteins/compound are summarized in Supporting Information Table S1.

The mark [2] stands for this setting: compound 10 μM, protein 2 μM, average of triplicate, read-out: ΔTm Shift, BRDT(2).

Read-outs that look alike come from different tables or passages of the source.

T5 sequence (Q92793 1085-1192 limits assumed): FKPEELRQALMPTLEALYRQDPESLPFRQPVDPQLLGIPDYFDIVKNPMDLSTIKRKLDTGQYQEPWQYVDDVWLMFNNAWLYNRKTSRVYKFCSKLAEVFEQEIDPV
T10 sequence (Q15059 306-415 limits assumed): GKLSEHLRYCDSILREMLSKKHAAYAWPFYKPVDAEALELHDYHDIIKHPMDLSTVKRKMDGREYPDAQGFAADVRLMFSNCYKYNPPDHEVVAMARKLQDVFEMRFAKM
T9 sequence (Q15059 34-140 limits assumed): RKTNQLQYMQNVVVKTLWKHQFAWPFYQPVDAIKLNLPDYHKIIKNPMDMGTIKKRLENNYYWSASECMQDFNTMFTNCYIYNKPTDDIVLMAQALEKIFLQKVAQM
T3 sequence (P25440 74-180 limits assumed): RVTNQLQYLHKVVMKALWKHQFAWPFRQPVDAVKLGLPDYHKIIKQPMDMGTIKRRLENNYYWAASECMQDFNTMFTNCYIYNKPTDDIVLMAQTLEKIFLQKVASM
T7 sequence (Q86U86 653-763 limits assumed): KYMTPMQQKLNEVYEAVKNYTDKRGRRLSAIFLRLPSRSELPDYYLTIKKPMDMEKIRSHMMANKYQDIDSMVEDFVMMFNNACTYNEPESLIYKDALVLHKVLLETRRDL
T8 sequence (P25440 344-453 limits assumed): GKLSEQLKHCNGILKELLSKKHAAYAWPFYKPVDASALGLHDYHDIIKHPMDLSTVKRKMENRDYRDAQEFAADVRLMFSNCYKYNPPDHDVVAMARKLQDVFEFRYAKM

For `COc1ccc(Br)cc1-c1nc(N)nc2c1ncn2CC(C)=O` [Compound 8c, 2-Amino-6-(5-bromo-2-methoxyphenyl)-9-(2-oxopropyl)-purine], the ΔTm at 10 µM at BRD9 is -0.109 °C; at BRD4(1) it was 0.24 °C; at BRD2(1), 0.0207 °C; on PCAF, -0.6 °C; at CREBBP, -0.07 °C; on BRDT(2) (setting [2]) it was 0.571 °C. The ΔTm at 10 µM is 0.243 °C at PB1(5); 0.0227 °C on BRD2(2); 0.275 °C on BRD3(1); 0.535 °C on BRD3(2); -0.431 °C on BRD4(2); 0.151 °C at BRDT(1). For the same compound, the ΔTm at 10 µM at BAZ2B is -0.06 °C. The “binding to the bromodomain panel in the ΔTm assay (in words)” value (from here on “binding … in the ΔTm assay (in words)”) in [1] was “could not be tolerated”.

Take `COc1ccc(F)cc1-c1nc(O)nc2[nH]cnc12` [Compound 8d, 6-(5-Fluoro-2-methoxyphenyl)-2-hydroxy-9H-purine]: the ΔTm at 10 µM was -0.8 °C at BRD9; 0.9 °C on BRD4(1); 1 °C at BRD2(1); 0.535 °C on PCAF; 0.34 °C on CREBBP; 0.368 °C on BRDT(2) (setting [2]). Besides, the ΔTm at 10 µM at PB1(5) came out at 0.564 °C; on BRD2(2) it was 0.5 °C; on BRD3(1), 0.9 °C; at BRD3(2), 0.187 °C; at BRD4(2), 0.7 °C; at BRDT(1) it was 0.9 °C. Further, at BAZ2B, the ΔTm at 10 µM amounted to 0.277 °C. Further, in experiment [1], the “binding … in the ΔTm assay (in words)” value is given as “lost affinity across the panel”.

For the compound `COc1ccc(Br)cc1-c1nc(O)nc2[nH]cnc12` [Compound 8f, 6-(5-Bromo-2-methoxyphenyl)-2-hydroxy-9H-purine], the ΔTm at 10 µM on BRD9 is -0.66 °C; on BRD4(1) it was 1.2 °C; on BRD2(1), 1 °C; at PCAF, 0.378 °C; on CREBBP, 0.6 °C; on BRDT(2) (setting [2]) it was 1 °C. Further, the ΔTm at 10 µM on PB1(5) stood at 0.8 °C; at BRD2(2) it was 0.5 °C; on BRD3(1), 0.55 °C; at BRD3(2), 0.853 °C; at BRD4(2), 0.7 °C; at BRDT(1), 0.653 °C. Also, at BAZ2B, the ΔTm at 10 µM turned out to be 0.563 °C. The “binding … in the ΔTm assay (in words)” value in experiment [1] is “lost affinity across the panel”.

For the compound `COc1ccc(F)cc1-c1ncnc2[nH]c(C)nc12` [Compound 9b, 6-(5-Fluoro-2-methoxyphenyl)-8-methyl-9H-purine], the ΔTm at 10 µM is 0.8 °C on BRD9; 0.0286 °C at BRD4(1); 0.0729 °C on BRD2(1); -1.5 °C on PCAF; 0.259 °C on CREBBP; 2.9 °C on BRDT(2) (thermal shift, 10 μM compound, 2 μM protein, read-out: ΔTm). For the same compound, the ΔTm at 10 µM at PB1(5) is 0.0705 °C; on BRD2(2), 0.9 °C; at BRD3(1) it was 0.2 °C; at BRD3(2), 0.341 °C; at BRD4(2) it was 0.148 °C; on BRDT(1) it was 0.2 °C. Moreover, on BAZ2B, the ΔTm at 10 µM was 0.2 °C. Besides, the “binding … in the ΔTm assay (in words)” value in [1] is given as “very low affinity for all bromodomains”.

The values above are taken from PMC4403932 (Journal of Medicinal Chemistry, 2015).
